According to ChEMBL document CHEMBL4308841, “Synthesis, in vitro antiproliferative activity, and kinase inhibitory effects of pyrazole-containing diarylureas and diarylamides” (Eur J Med Chem, 2018):

Assays:
SK-MEL-2 = assay: Growth inhibition of human SK-MEL-2 cells assessed as cell growth at 0.01 uM incubated for 48 hrs by sulforhodamine B assay relative to control; assay type: functional; details: SK-MEL-2, 48 h, read-out: Activity
SN12C = assay: Growth inhibition of human SN12C cells assessed as cell growth at 1 uM incubated for 48 hrs by sulforhodamine B assay relative to control; assay type: functional; details: read-out: Activity
LOX IMVI = assay: Growth inhibition of human LOXIMVI cells assessed as cell growth at 100 uM incubated for 48 hrs by sulforhodamine B assay relative to control; assay type: functional; details: read-out: Activity
NCI/ADR-RES = assay: Growth inhibition of human NCI/ADR-RES cells incubated for 48 hrs by sulforhodamine B assay; assay type: functional, cell-based
M14 = assay: Growth inhibition of human M14 cells incubated for 48 hrs by sulforhodamine B assay; assay type: functional, cell-based; details: M14, 48 h
MDA-MB-435 = assay: Growth inhibition of human MDA-MB-435 cells assessed as cell growth at 0.1 uM incubated for 48 hrs by sulforhodamine B assay relative to control; assay type: functional; details: MDA-MB-435, 48 h, read-out: Activity
NCI-H23 = assay: Growth inhibition of human NCI-H23 cells incubated for 48 hrs by sulforhodamine B assay; assay type: functional, cell-based; details: NCI-H23, 48 h
BT-549 = assay: Growth inhibition of human BT549 cells assessed as cell growth at 0.1 uM incubated for 48 hrs by sulforhodamine B assay relative to control; assay type: functional; details: BT-549, 48 h, read-out: Activity
UACC-62 = assay: Growth inhibition of human UACC62 cells assessed as cell growth at 1 uM incubated for 48 hrs by sulforhodamine B assay relative to control; assay type: functional; details: UACC-62, 48 h, read-out: Activity
RPMI-8226 [1] = assay: Growth inhibition of human RPMI8226 cells assessed as cell growth at 100 uM incubated for 48 hrs by sulforhodamine B assay relative to control; assay type: functional; details: RPMI-8226, 48 h, read-out: Activity
PC-3 = assay: Growth inhibition of human PC3 cells assessed as cell growth at 0.01 uM incubated for 48 hrs by sulforhodamine B assay relative to control; assay type: functional; details: PC-3, 48 h, read-out: Activity
SK-MEL-28 = assay: Growth inhibition of human SK-MEL-28 cells assessed as cell growth at 0.01 uM incubated for 48 hrs by sulforhodamine B assay relative to control; assay type: functional; details: SK-MEL-28, 48 h, read-out: Activity
MDA-MB-231 = assay: Growth inhibition of human MDA-MB-231 cells assessed as cell growth at 1 uM incubated for 48 hrs by sulforhodamine B assay relative to control; assay type: functional; details: MDA-MB-231, 48 h, read-out: Activity
SK-OV-3 = assay: Growth inhibition of human SKOV3 cells assessed as cell growth at 1 uM incubated for 48 hrs by sulforhodamine B assay relative to control; assay type: functional; details: SK-OV-3, 48 h, read-out: Activity
KM12 = assay: Growth inhibition of human KM12 cells assessed as cell growth at 1 uM incubated for 48 hrs by sulforhodamine B assay relative to control; assay type: functional; details: KM12, 48 h, read-out: Activity
RPMI-8226 [2] = assay: Growth inhibition of human RPMI8226 cells incubated for 48 hrs by sulforhodamine B assay; assay type: functional, cell-based; details: RPMI-8226, 48 h
NCI-H522 = assay: Growth inhibition of human NCI-H522 cells assessed as cell growth at 0.1 uM incubated for 48 hrs by sulforhodamine B assay relative to control; assay type: functional; details: NCI-H522, 48 h, read-out: Activity
U-251 = assay: Growth inhibition of human U251 cells assessed as cell growth at 0.1 uM incubated for 48 hrs by sulforhodamine B assay relative to control; assay type: functional; details: U-251, 48 h, read-out: Activity
T47D = assay: Growth inhibition of human T47D cells assessed as cell growth at 1 uM incubated for 48 hrs by sulforhodamine B assay relative to control; assay type: functional; details: read-out: Activity
SNB-19 = assay: Growth inhibition of human SNB19 cells incubated for 48 hrs by sulforhodamine B assay; assay type: functional, cell-based; details: SNB-19, 48 h
Hs-578T = assay: Growth inhibition of human Hs578T cells assessed as cell growth at 0.01 uM incubated for 48 hrs by sulforhodamine B assay relative to control; assay type: functional; details: read-out: Activity
SF-539 = assay: Growth inhibition of human SF539 cells assessed as cell growth at 0.1 uM incubated for 48 hrs by sulforhodamine B assay relative to control; assay type: functional; details: SF-539, 48 h, read-out: Activity
K562 = assay: Growth inhibition of human K562 cells assessed as cell growth at 1 uM incubated for 48 hrs by sulforhodamine B assay relative to control; assay type: functional; details: K562, 48 h, read-out: Activity
MOLT-4 = assay: Growth inhibition of human MOLT4 cells assessed as cell growth at 100 uM incubated for 48 hrs by sulforhodamine B assay relative to control; assay type: functional; details: MOLT-4, 48 h, read-out: Activity
NCI-H322M = assay: Growth inhibition of human NCI-H322M cells incubated for 48 hrs by sulforhodamine B assay; assay type: functional, cell-based
Malme-3M [3] = assay: Growth inhibition of human MALME-3M cells assessed as cell growth at 0.01 uM incubated for 48 hrs by sulforhodamine B assay relative to control; assay type: functional; details: read-out: Activity
HL-60(TB) = assay: Growth inhibition of human HL-60(TB) cells assessed as cell growth at 1 uM incubated for 48 hrs by sulforhodamine B assay relative to control; assay type: functional; details: HL-60, 48 h, read-out: Activity
Malme-3M [4] = assay: Growth inhibition of human MALME-3M cells assessed as cell growth at 100 uM incubated for 48 hrs by sulforhodamine B assay relative to control; assay type: functional; details: read-out: Activity
[5] = read-out: LC50 (the source's name)
[6] = read-out: pLC50 (the source's name) (converted)

O=C(Nc1cccc(-n2cc(-c3ccncc3)c(-c3cc(O)cc(Cl)c3)n2)c1)c1cc(C(F)(F)F)cc(C(F)(F)F)c1
growth at 0.01 µM (SK-MEL-2): 95% | growth at 1 µM (SN12C): 91% | growth at 100 µM (LOX IMVI): -41% | GI50 (NCI/ADR-RES; read-out: GI50): 4.58 µM | CC50 (NCI/ADR-RES; [5]): > 100 µM | TGI (NCI/ADR-RES; read-out: TGI): > 100 µM | GI50 (NCI/ADR-RES; read-out: pGI50 (converted)): 4.57 µM | CC50 (NCI/ADR-RES; [6]): > 100 µM | TGI (NCI/ADR-RES; read-out: pTGI (converted)): > 100 µM | GI50 (M14; read-out: GI50): 3010 nM | CC50 (M14; [5]): > 100 µM | TGI (M14; read-out: TGI): > 100 µM | GI50 (M14; read-out: pGI50 (converted)): 3020 nM | CC50 (M14; [6]): > 100 µM | TGI (M14; read-out: pTGI (converted)): > 100 µM | growth at 0.1 µM (MDA-MB-435): 95% | GI50 (NCI-H23; read-out: GI50): 4.18 µM | LC50 (NCI-H23; read-out: LC50): > 100 µM | TGI (NCI-H23; read-out: TGI): 45.5 µM | GI50 (NCI-H23; read-out: pGI50 (converted)): 4.17 µM | LC50 (NCI-H23; read-out: pLC50 (converted)): > 100 µM | TGI (NCI-H23; read-out: pTGI (converted)): 46.8 µM | growth at 0.1 µM (BT-549): 103% | growth at 1 µM (UACC-62): 92% | growth at 100 µM (RPMI-8226 [1]): -4% | growth at 0.01 µM (PC-3): 95% | growth at 0.01 µM (SK-MEL-28): 99% | growth at 1 µM (MDA-MB-231): 70% | growth at 1 µM (SK-OV-3): 100% | growth at 1 µM (KM12): 79% | IC50 (RPMI-8226 [2]): 2500 nM | GI50 (RPMI-8226 [2]; read-out: GI50): 2500 nM | CC50 (RPMI-8226 [2]; [5]): > 100 µM | TGI (RPMI-8226 [2]; read-out: TGI): 12.7 µM | GI50 (RPMI-8226 [2]; read-out: pGI50 (converted)): 2510 nM | CC50 (RPMI-8226 [2]; [6]): > 100 µM | TGI (RPMI-8226 [2]; read-out: pTGI (converted)): 12.6 µM | growth at 0.1 µM (NCI-H522): 30% | growth at 0.1 µM (U-251): 93% | growth at 1 µM (T47D): 57% | GI50 (SNB-19; read-out: GI50): 7.03 µM | CC50 (SNB-19; [5]): > 100 µM | TGI (SNB-19; read-out: TGI): > 100 µM | GI50 (SNB-19; read-out: pGI50 (converted)): 7.08 µM | CC50 (SNB-19; [6]): > 100 µM | TGI (SNB-19; read-out: pTGI (converted)): > 100 µM | growth at 0.01 µM (Hs-578T): 93% | growth at 0.1 µM (SF-539): 91% | growth at 1 µM (K562): 85% | growth at 100 µM (MOLT-4): 3% | GI50 (NCI-H322M; read-out: GI50): 7.92 µM | CC50 (NCI-H322M; [5]): > 100 µM | TGI (NCI-H322M; read-out: TGI): > 100 µM | GI50 (NCI-H322M; read-out: pGI50 (converted)): 7.94 µM | CC50 (NCI-H322M; [6]): > 100 µM | TGI (NCI-H322M; read-out: pTGI (converted)): > 100 µM | growth at 0.01 µM (Malme-3M [3]): 97%

O=C(Nc1cccc(-n2cc(-c3ccncc3)c(-c3cc(O)cc(Cl)c3)n2)c1)Nc1ccc(Cl)c(Cl)c1
growth at 0.01 µM (SK-MEL-2): 59% | growth at 1 µM (SN12C): 58% | growth at 100 µM (LOX IMVI): -38% | GI50 (NCI/ADR-RES; read-out: GI50): 3.21 µM | CC50 (NCI/ADR-RES; [5]): > 100 µM | TGI (NCI/ADR-RES; read-out: TGI): > 100 µM | GI50 (NCI/ADR-RES; read-out: pGI50 (converted)): 3.24 µM | CC50 (NCI/ADR-RES; [6]): > 100 µM | TGI (NCI/ADR-RES; read-out: pTGI (converted)): > 100 µM | GI50 (M14; read-out: GI50): 1440 nM | CC50 (M14; [5]): 7.44 µM | TGI (M14; read-out: TGI): 32.8 µM | GI50 (M14; read-out: pGI50 (converted)): 1450 nM | CC50 (M14; [6]): 7.41 µM | TGI (M14; read-out: pTGI (converted)): 3.31 µM | growth at 0.1 µM (MDA-MB-435): 93% | GI50 (NCI-H23; read-out: GI50): 2.41 µM | LC50 (NCI-H23; read-out: LC50): > 100 µM | TGI (NCI-H23; read-out: TGI): 62.9 µM | GI50 (NCI-H23; read-out: pGI50 (converted)): 2.4 µM | LC50 (NCI-H23; read-out: pLC50 (converted)): > 100 µM | TGI (NCI-H23; read-out: pTGI (converted)): 5.01 µM | growth at 0.1 µM (BT-549): 93% | growth at 1 µM (UACC-62): 83% | growth at 100 µM (RPMI-8226 [1]): -27% | growth at 0.01 µM (PC-3): 90% | growth at 0.01 µM (SK-MEL-28): 108% | growth at 1 µM (MDA-MB-231): 50% | growth at 1 µM (SK-OV-3): 110% | growth at 1 µM (KM12): 72% | IC50 (RPMI-8226 [2]): 1440 nM | GI50 (RPMI-8226 [2]; read-out: GI50): 1440 nM | CC50 (RPMI-8226 [2]; [5]): > 100 µM | TGI (RPMI-8226 [2]; read-out: TGI): 43 µM | GI50 (RPMI-8226 [2]; read-out: pGI50 (converted)): 1450 nM | CC50 (RPMI-8226 [2]; [6]): > 100 µM | TGI (RPMI-8226 [2]; read-out: pTGI (converted)): 4.27 µM | growth at 1 µM (HL-60(TB)): 106% | growth at 0.1 µM (NCI-H522): 92% | growth at 0.1 µM (U-251): 93% | growth at 1 µM (T47D): 96% | growth at 100 µM (Malme-3M [4]): -45% | GI50 (SNB-19; read-out: GI50): 3.38 µM | CC50 (SNB-19; [5]): > 100 µM | TGI (SNB-19; read-out: TGI): 19 µM | GI50 (SNB-19; read-out: pGI50 (converted)): 3.16 µM | CC50 (SNB-19; [6]): > 100 µM | TGI (SNB-19; read-out: pTGI (converted)): 19.1 µM | growth at 0.01 µM (Hs-578T): 98% | growth at 0.1 µM (SF-539): 95% | growth at 1 µM (K562): 83% | growth at 100 µM (MOLT-4): -10% | GI50 (NCI-H322M; read-out: GI50): 1.78 µM | CC50 (NCI-H322M; [5]): > 100 µM | TGI (NCI-H322M; read-out: TGI): 76.1 µM | GI50 (NCI-H322M; read-out: pGI50 (converted)): 1.78 µM | CC50 (NCI-H322M; [6]): > 100 µM | TGI (NCI-H322M; read-out: pTGI (converted)): 7.76 µM | growth at 0.01 µM (Malme-3M [3]): 57%
